What is called IC50 is the concentration that inhibits the measured activity by half.

In this assay the target is human recombinant H-PGDS (Homo sapiens, UniProt O60760). Put plainly: Fluorescence Intensity h-PGDS TBA Enzyme Assay. The format is biochemical. The following applies: 1:175,000 human recombinant H-PGDS, highest inhibitor concentration typically 1 μM. The method, then: Fluorescence Intensity h-PGDSTBA Enzyme Assay
Sequence of human recombinant H-PGDS (O60760 whole entry): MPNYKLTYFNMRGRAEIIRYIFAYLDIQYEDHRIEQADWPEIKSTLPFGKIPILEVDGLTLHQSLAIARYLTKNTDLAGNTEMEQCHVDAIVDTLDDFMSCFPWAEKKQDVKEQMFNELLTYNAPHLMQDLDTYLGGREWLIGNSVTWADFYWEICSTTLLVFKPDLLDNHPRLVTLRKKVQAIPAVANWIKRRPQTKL
Prostaglandin D Synthase (PGDS) converts the substrate prostaglandin H2 (PGH2) to prostaglandin D2. The depletion of PGH2 was measured via an Fe(II) reduction of the remaining PGH2 to malondialdehyde (MDA) and 12-HHT. The enzyme assay is based on the quantitative formation of a fluorescent complex from the non-fluorescent compounds MDA and 2-thiobarbituric acid (TBA), substantially as described in U.S. patent application publication US-2004/152148 by Lombardt.
The enzyme assay (31 μls) contained 100 mM Tris base pH 8.0, 100 μM MgCl2, 0.1 mg/ml IgG Rabbit serum, 5.0 μM PGH2 (Cayman; ethanol solution, #17020), 2.5 mM L-Glutathione (Sigma; reduced form #G4251), 1:175,000 human recombinant H-PGDS (from 1 mg/ml), 0.5% DMSO and inhibitor (varying concentration). Three μls of diluted inhibitor (dissolved in DMSO) was plated into a 384-well assay plate followed by a 25 μl addition of an enzyme solution containing h-PGDS, Tris, MgCl2, IgG and L-Glutathione. After preincubation of inhibitor and enzyme solution for 10 minutes at room temperature, the reaction was initiated with a 3 μl addition of substrate solution in 10 mM HCl. The reaction was terminated after 42 second by the addition (3 μl) of stop buffer containing FeCl2 and citric acid. After addition of 45.5 μls of TBA plates were heated for one hour in a 70 C oven. Plates were cooled at room temperature overnight and read on a plate reader the next day with excitation @ 530 nm and emission @ 565 nm.
IC50's of inhibitors were calculated with a 4-parameter fit using 11 inhibitor concentrations in duplicate with 3-fold serial dilutions. Controls on each plate included no inhibitor (zero % effect) and an inhibitor 10-fold in excess of its' IC50 (100% effect). The highest inhibitor concentration tested was typically 1 μM.
In the case of “6-(3-Fluorophenyl)-N-[2- hydroxy-2-(1-methyl-1H- imidazol-2- yl)ethyl]nicotinamide [Example 4]”, the IC50 amounted to 59.9 nM.

Take `Cc1ccc(CN2CCC(NC(=O)c3ccc(-c4cccc(C)c4)nc3)C2=O)cc1` (stereo not drawn) [Example 227, N-[1-(4-Methylbenzyl)-2-oxopyrrolidin-3-yl]-6-(3-methylphenyl)nicotinamide]: the IC50 came to 62.2 nM.

As for `CN1CCN(CC(NC(=O)c2ccc(-c3cccc(F)c3)nc2)c2ccccc2)CC1` (stereo not drawn) [Example 144, 6-(3-Fluorophenyl)-N-[2-(4-methylpiperazin-1-yl)-1-phenylethyl]nicotinamide], the IC50 came out at 109 nM.

Regarding `CCOC(=O)CC(C)NC(=O)c1ccc(-c2cccc(F)c2)nc1` (stereo not drawn) [Example 157, Ethyl 3-({[6-(3-fluorophenyl)pyridin-3-yl]carbonyl}amino)butanoate], the IC50 was 8.79 nM.

In the case of `O=C(NCC(O)c1ccccc1F)c1cnc(-c2cccc(F)c2)c(Cl)c1` (stereo not drawn) [Example 549, 5-Chloro-6-(3-fluorophenyl)-N-[2-(2-fluorophenyl)-2-hydroxyethyl]nicotinamide], the IC50 was 37.9 nM.

As to `CCOCC(O)CNC(=O)c1ccc(-c2cccc(F)c2)nc1` (stereo not drawn) [Example 34, N-(3-Ethoxy-2-hydroxypropyl)-6-(3-fluorophenyl)nicotinamide], the IC50 turned out to be 73.4 nM.

Take `CCC(C)NC(=O)c1ccc(-c2ccc(F)cc2)nc1` (stereo not drawn) [Example 492, N-sec-Butyl-6-(4-fluorophenyl)nicotinamide]: the IC50 is not below 1000 nM.

As for `O=C(NCC1CC2(CCN(Cc3cc[nH]n3)CC2)CO1)c1ccc(-c2cccc(F)c2)nc1` (stereo not drawn) [Example 51, 6-(3-Fluorophenyl)-N-{[8-(1H-pyrazol-3-ylmethyl)-2-oxa-8-azaspiro[4.5]dec-3-yl]methyl}nicotinamide], the IC50 was 25.4 nM.

Take `CCn1c(CCNC(=O)c2ccc(-c3ccccc3)nc2)nc2cc(C(=O)NCCOC)ccc21` [Example 391, 1-Ethyl-N-(2-methoxyethyl)-2-(2-{[(6-phenylpyridin-3-yl)carbonyl]amino}ethyl)-1H-benzimidazole-5-carboxamide]: the IC50 was found to be 0.906 nM.

As for `Cc1cccc(-c2ccc(C(=O)Nc3ccncc3)cn2)c1` [Example 228, 6-(3-Methylphenyl)-N-pyridin-4-ylnicotinamide], the IC50 was found to be 6.51 nM.

As to `O=C(NCc1coc(-c2ccccc2)n1)c1ccc(-c2cccc(F)c2)nc1` [Example 152, 6-(3-Fluorophenyl)-N-[(2-phenyl-1,3-oxazol-4-yl)methyl]nicotinamide], the IC50 came to 4.49 nM.

For `CCOC(=O)C1(NC(=O)c2ccc(-c3ccccc3)nc2)CCOCC1` [Example 372, Ethyl 4-{[(6-phenylpyridin-3-yl)carbonyl]amino}tetrahydro-2H-pyran-4-carboxylate], the IC50 was 249 nM.

Regarding `CCOC(=O)CC[C@H](NC(=O)c1ccc(-c2ccc(F)cc2)nc1)C(=O)OCC` [Example 471, Diethyl N-{[6-(4-fluorophenyl)pyridin-3-yl]carbonyl}-L-glutamate], the IC50 is 192 nM.

With `COc1ccc2nc(CNC(=O)c3ccc(-c4cccc(F)c4)nc3)[nH]c2c1` [Example 441, 6-(3-Fluorophenyl)-N-[(6-methoxy-1H-benzimidazol-2-yl)methyl]nicotinamide], the IC50 was found to be 45.2 nM.

Consider `Cc1ccc(CNC(=O)c2ccc(-c3ccccc3)nc2)cc1` [Example 365, N-(4-Methylbenzyl)-6-phenylnicotinamide], for which the IC50 was 4.2 nM.

Consider `CN1CCC(O)(CNC(=O)c2ccc(-c3cccc(F)c3)nc2)CC1` [Example 121, 6-(3-Fluorophenyl)-N-[(4-hydroxy-1-methylpiperidin-4-yl)methyl]nicotinamide], for which the IC50 worked out at 129 nM.

For `O=C(NCCN1CCN(Cc2ccccc2)CC1)c1ccc(-c2cccc(F)c2)nc1` [Example 176, N-[2-(4-Benzylpiperazin-1-yl)ethyl]-6-(3-fluorophenyl)nicotinamide], the IC50 worked out at 33.4 nM.

For the molecule `O=C(NCCN1CCCC1)c1ccc(-c2ccccc2)nc1` [Example 358, 6-Phenyl-N-(2-pyrrolidin-1-ylethyl)nicotinamide], the IC50 amounted to 199 nM.

`O=C(NCC1CCCOC1)c1ccc(-c2cccc(F)c2)nc1` (stereo not drawn) [Example 40, 6-(3-Fluorophenyl)-N-(tetrahydro-2H-pyran-3-ylmethyl)nicotinamide]: the half-inhibitory concentration (IC50) is 7.14 nM.

As to `Cc1cccc(-c2ccc(C(=O)NCCN3CCCCC3)cn2)c1` [Example 225, 6-(3-Methylphenyl)-N-(2-piperidin-1-ylethyl)nicotinamide], the IC50 was determined as 265 nM.

Take `O=C(NCCCn1nnc2ccccc21)c1ccc(-c2cccc(F)c2)nc1` [Example 5, N-[3-(1H-Benzotriazol-1-yl)propyl]-6-(3-fluorophenyl)nicotinamide]: the IC50 is 4.86 nM.

Consider `N#CC(NC(=O)c1ccc(-c2ccccc2)nc1)C(=O)NCCN1CCOCC1` (stereo not drawn) [Example 376, N-{1-Cyano-2-[(2-morpholin-4-ylethyl)amino]-2-oxoethyl}-6-phenylnicotinamide], for which the IC50 was found to be 55.2 nM.

Consider `COc1ccc(OCCNC(=O)c2ccc(-c3cccc(F)c3)nc2)cc1` [Example 434, 6-(3-Fluorophenyl)-N-[2-(4-methoxyphenoxy)ethyl] nicotinamide], for which the IC50 turned out to be 101 nM.

Take `COc1cc(CNC(=O)c2cnc(-c3cccc(F)c3)c(Cl)c2)cc2c1OCCO2` [Example 548, 5-Chloro-6-(3-fluorophenyl)-N-[(8-methoxy-2,3-dihydro-1,4-benzodioxin-6-yl)methyl]nicotinamide]: the IC50 is 54.7 nM.

Turning to `Cc1cc(C)cc(-c2nnc(CCNC(=O)c3ccc(-c4cccc(F)c4)nc3)o2)c1` [Example 213, N-{2-[5-(3,5-Dimethylphenyl)-1,3,4-oxadiazol-2-yl]ethyl}-6-(3-fluorophenyl)nicotinamide], the IC50 turned out to be 28.3 nM.

As to `COc1cccc(-c2ccc(C(=O)NC3CCOC3=O)cn2)c1` (stereo not drawn) [Example 293, 6-(3-Methoxyphenyl)-N-(2-oxotetrahydrofuran-3-yl)nicotinamide], the IC50 came to 508 nM.

For the molecule `CC(O)CNC(=O)c1ccc(-c2cccc(F)c2)nc1` (stereo not drawn) [Example 198, 6-(3-Fluorophenyl)-N-(2-hydroxypropyl)nicotinamide], the IC50 was 38.7 nM.

Regarding `COc1ccc(C(N)CC(=O)NC(=O)c2ccc(-c3cccc(C)c3)nc2)cc1OC` (stereo not drawn) [Example 452, N-[3-Amino-3-(3,4-dimethoxyphenyl)propanoyl]-6-(3-methylphenyl) nicotinamide], the IC50 was determined as 23.6 nM.

Take `O=C(NCc1ccc(Br)cc1)c1ccc(-c2ccc(F)cc2)nc1` [Example 505, N-(4-Bromobenzyl)-6-(4-fluorophenyl)nicotinamide]: the IC50 is not below 1000 nM.

Turning to `Cc1cc(C(F)(F)F)nc(CCNC(=O)c2ccc(-c3cccc(F)c3)nc2)n1` [Example 124, 6-(3-Fluorophenyl)-N-{2-[4-methyl-6-(trifluoromethyl)pyrimidin-2-yl]ethyl}nicotinamide], the IC50 was determined as 18.3 nM.

`O=C(NCCC1CCC(=O)N1CCN1CCCC1)c1ccc(-c2cccc(F)c2)nc1` (stereo not drawn) [Example 75, 6-(3-Fluorophenyl)-N-{2-[5-oxo-1-(2-pyrrolidin-1-ylethyl)pyrrolidin-2-yl]ethyl}nicotinamide]: the IC50 is 48 nM.

In the case of `CS(=O)(=O)Cc1noc(CNC(=O)c2ccc(-c3ccc(F)cc3)nc2)n1` [Example 322, 6-(4-Fluorophenyl)-N-({3-[(methylsulfonyl)methyl]-1,2,4-oxadiazol-5-yl}methyl)nicotinamide], the IC50 was not below 1000 nM.

As to `O=C(NCc1ccco1)c1ccc(-c2cccc(F)c2)nc1` [Example 428, 6-(3-Fluorophenyl)-N-(2-furylmethyl)nicotinamide], the IC50 worked out at 40.9 nM.

As to `O=C(Nc1cccnc1)c1ccc(-c2ccc(F)cc2)nc1` [Example 328, 6-(4-Fluorophenyl)-N-pyridin-3-ylnicotinamide], the IC50 was 92 nM.

As to `CN(C)CCNC(=O)c1ccc(-c2ccc(F)cc2)nc1` [Example 467, N-[2-(Dimethylamino)ethyl]-6-(4-fluorophenyl)nicotinamide], the IC50 is not below 1000 nM.

As to `CCCOCCCNC(=O)c1ccc(-c2cc(F)cc(F)c2)nc1` [Example 569, 6-(3,5-Difluorophenyl)-N-(3-propoxypropyl)nicotinamide], the IC50 worked out at 25.1 nM.

Consider `CC(C)NC(=O)c1ccc(-c2cccc(F)c2)nc1` [Example 179, 6-(3-Fluorophenyl)-N-isopropylnicotinamide], for which the IC50 was 20.5 nM.

As to `O=C(N[C@@H](CO)c1ccccc1)c1ccc(-c2cccc(F)c2)nc1` [Example 78, 6-(3-Fluorophenyl)-N-[(1R)-2-hydroxy-1-phenylethyl] nicotinamide], the IC50 came to 45 nM.

For `COc1ccc(C(CNC(=O)c2ccc(-c3ccccc3)nc2)N2CCOCC2)cc1` (stereo not drawn) [Example 400, N-[2-(4-Methoxyphenyl)-2-morpholin-4-ylethyl]-6-phenylnicotinamide], the IC50 was determined as 86.1 nM.

For the origin of these results see patent publication US20110306597A1, “Nicotinamide Derivatives” (priority 2008, published 2011).
